From US10993933B2, “Oral dosage forms of bendamustine” (ASTELLAS DEUTSCHLAND GMBH, priority 2010, dated 2021)

Experiments:
[1] = Phase 1 crossover study, plasma pharmacokinetics after oral and i.v. bendamustine (Example 8); conditions: for AUCinf / AUClast / Cmax / t1/2 / tmax: M3 in plasma, mean, n=11
Protocol: An open label, randomized two-way crossover study to assess the absolute bioavailability of oral bendamustine in patients with cancer was conducted to assess the absolute bioavailability of bendamustine administered as an oral formulation (example 2). Besides assessing the pharmacokinetics of bendamustine in plasma following oral and i.v. administration, a further objective was to evaluate the safety and tolerability of bendamustine following i.v. and especially oral administration of the formulation of example 2.
14 patients who were suffering from multiple myeloma, B-cell type chronic lymphocytic leukemia or advanced indolent non-Hodgkin's lymphoma were enrolled and were treated with bendamustine. […] After signing the informed consent form and following the screening period (days −21 to −2), eligible patients were assigned a patient number which was specific for each study site. Patients were randomized to receive one of the following on day 1 followed by the other on day 8: • a single oral dose of 110.2 mg (2×55.1 mg) bendamustine HCl • a single intravenous dose of 100 mg bendamustine HCl
Bendamustine was provided a) orally as capsules, a LFHC formulation (liquid-filled, hard-shell capsule) and b) intravenously as a solution after reconstituting a powder for the preparation of a solution for injection. The LFHC formulation (per capsule) was prepared from 55.1 mg bendamustine hydrochloride, 1.2 mg methylparaben, 0.12 mg […], 0.12 mg butylated hydroxytoluene, 10.9 mg ethanol and 532.56 mg CREMOPHOR RH40. The vial with powder for concentrate for solution was the marketed product in Germany (RIBOMUSTINE) which contains per vial 100 mg of bendamustine hydrochloride and mannitol as an excipient. This product was reconstituted with water for injection to a final concentration of 2.5 mg/ml of bendamustine HCl and was further diluted with 0.9% NaCl until about 500 ml before administration to the patient, in accordance with the instructions of the package insert.
Patients were admitted to the study site for 2 periods; days −1 to 2 (period 1) and days 7 to 9 (period 2). A total of 12 patients was to be randomized to receive treatment. Six patients were to receive treatment with a single oral dose of 110.2 mg (2×55.1 mg) bendamustine HCl (day 1) followed by a single intravenous dose of 100 mg bendamustine HCl (day 8) while 6 other patients were to receive treatment in the alternate order. Patients underwent a washout period of at least 7 days between treatments.
After oral and intravenous administration of bendamustine the concentration of bendamustine, as well as that of the active metabolites of bendamustine (M3 and M4), were determined in plasma and urine samples on day 1 and day 8. Patients returned to the study site for an end-of-study visit 7 to 14 days after completion of the second treatment period, or after early discharge/withdrawal. Subsequently the pharmacokinetic parameters of bendamustine and its metabolites were calculated.

[2] = Phase 1 crossover study, urine pharmacokinetics (Example 8); assay type: in vivo, human; conditions: for % Aeinf / % Aelast / Aeinf / Aelast / CLR: M3 in urine
Text: Urine pharmacokinetic parameters of bendamustine, M3 and M4 are presented in Table 27, Table 28 and Table 29, respectively. The percentage of the dose excreted in urine unchanged was low (2.6% and 2.1% for oral and intravenous bendamustine, respectively).

[3] = Bendamustine HCl 100 mg intravenously
[4] = Bendamustine HCl 110.2 mg orally
[5] = Bendamustine HCl 100 mg intravenously, mean, n=11
[6] = Bendamustine HCl 100 mg intravenously, median, n=11
[7] = Bendamustine HCl 100 mg intravenously, min-max, n=11
[8] = Bendamustine HCl 110.2 mg orally, mean, n=10
[9] = Bendamustine HCl 110.2 mg orally, median, n=10
[10] = Bendamustine HCl 110.2 mg orally, min-max, n=10

Compound: Cn1c(C(O)CCC(=O)O)nc2cc(N(CCCl)CCCl)ccc21 (centres unmarked) [Batch M3, γ-hydroxybendamustine]
- AUCinf [1, 3]: 372 ng·h/mL
- AUClast [1, 3]: 370 ng·h/mL
- Cmax [1, 3]: 344 ng/mL
- t1/2 [1, 3]: 43.6 min
- tmax [1, 3]: 49.4 min
- AUCinf [1, 4]: 369 ng·h/mL
- AUClast [1, 4]: 367 ng·h/mL
- Cmax [1, 4]: 243 ng/mL
- t1/2 [1, 4]: 38.6 min
- tmax [1, 4]: 76.2 min
- Mean AUCinf of bendamustine relative to that of the metabolite (times higher) ([1]; patients, oral administration): 10.6 times
- exposure relative to that of bendamustine ([1]; patients, oral administration): approximately 9%
- AUCinf after oral administration as % of AUCinf after intravenous administration ([1]; patients, 90% CI M3: 76%, 98%, M4: 77%, 102%): 86%
- % Aeinf [2, 5]: 0.459%
- % Aelast [2, 5]: 0.457%
- Aeinf [2, 5]: 0.435 mg
- Aelast [2, 5]: 0.433 mg
- CLR [2, 5]: 1.29 L/h
- % Aeinf [2, 6]: 0.354%
- % Aelast [2, 6]: 0.353%
- Aeinf [2, 6]: 0.336 mg
- Aelast [2, 6]: 0.334 mg
- CLR [2, 6]: 0.856 L/h
- % Aeinf [2, 7]: 0.018-1.6%
- % Aelast [2, 7]: 0.018-1.6%
- Aeinf [2, 7]: 0.017 to 1.6 mg
- Aelast [2, 7]: 0.017 to 1.5 mg
- CLR [2, 7]: 0.082 to 5.2 L/h
- % Aeinf [2, 8]: 0.611%
- % Aelast [2, 8]: 0.61%
- Aeinf [2, 8]: 0.636 mg
- Aelast [2, 8]: 0.635 mg
- CLR [2, 8]: 2.14 L/h
- % Aeinf [2, 9]: 0.537%
- % Aelast [2, 9]: 0.553%
- Aeinf [2, 9]: 0.558 mg
- Aelast [2, 9]: 0.576 mg
- CLR [2, 9]: 1.49 L/h
- % Aeinf [2, 10]: 0.13-1.5%
- % Aelast [2, 10]: 0.12-1.6%
- Aeinf [2, 10]: 0.13 to 1.6 mg
- Aelast [2, 10]: 0.13 to 1.7 mg
- CLR [2, 10]: 0.45 to 7.4 L/h
- percentage of the dose excreted in urine as metabolite ([2]; patients, oral administration): 0.6%
